Assay results reported in patent US20240358829A1, “Lymphocyte Population and Methods for Producing Same” (AVM Biotechnology, LLC, priority 2021, published 2024).
Values joined by “and” are separate entries in the source; they are usually repeats but may differ in a detail not shown here. Identical values can stand only once.

Test system: CD56+γδTCR+iTCR+ cells
Test: AVM0703 R/R NHL clinical trial, whole blood flow cytometry
Format: in vivo, human
Method: FIG. 15. 101-001 size (FSC) and complexity (SSC) scattergram of AVM_NKT cells. […] Blood was stained with panel antibodies based for 15 minutes in the dark at Room Temperature. RBC lysis was performed by addition of 1 mL of 1×BD FACS Lysing Solution (BD Bioscience), diluted with MilliQ water, for 10 minutes in the dark at Room Temperature. Samples were washed with 2 mL 1×DPBS CMF (Gibco) and resuspended in 300 μL of 1×DPBS CMF before 5 μL of 7AAD (Biolegend) was added to each sample for live/dead cell determination and incubated for 5 minutes in the dark at Room Temperature. 250 μL of sample were taken up for acquisition on Macsquant 16 Flow Cytometer (Miltenyi, Serial #40150). Live white blood cells were gated for CD56+ cells co-expressing gamma delta TCR and the invariant TCR and labelled red in the forward versus side scattergram. Red-labelled cells fall within the forward versus side scattergrams where large granular cells such as neutrophils and large granular lymphocytes are known to fall.
For characterisation of the induced/mobilized population of NKT-like cells (AVM-NKT) in humans, whole blood from human subjects was drawn in K2 EDTA Vacutainer tube (367862, BD Biosciences, NJ) and shipped to AVM Biotechnology at room temperature. 100 μl of whole blood was stained with the following antibodies: CD45 AF700 (2D1), CD16 APC (3G8), INKT PECy7 (6B11), CD8 PE (SK1), CD14 FITC (M5E2), CD56 BV650 (5.1H11), γδTCR BV510 (B1), CD19 BV421 (HIB19), NKp44 APC (P44-8) (all from Biolegend, San Diego, CA) and CD3 APCVio770 (BW264/56), (Miltenyi Biotec, San Jose, CA), 7-AAD, (Biolegend, San Diego CA) was included to distinguish the live and dead cells.

[1] = patient 108-001, 1st 9 mg/kg infusion, 1 hour
[2] = patient 108-001, 1st 9 mg/kg infusion, Day 3
[3] = patient 108-001, 1st 9 mg/kg infusion, Day 14
[4] = patient 108-001, 2nd 9 mg/kg infusion, 1 hour
[5] = patient 108-001, 2nd 9 mg/kg infusion, Day 3
[6] = patient 108-001, 2nd 9 mg/kg infusion, Day 14
[7] = patient 108-002, 18 mg/kg, 1 hour post-infusion
[8] = patient 108-002, 18 mg/kg, Day 3
[9] = patient 108-002, 18 mg/kg, Day 14
[10] = patient 108-003, 12 mg/kg, 1 hour post-infusion
[11] = patient 108-003, 12 mg/kg, Day 3
[12] = patient 108-003, 12 mg/kg, Day 14

C[C@@H]1C[C@H]2[C@@H]3CCC4=CC(=O)C=C[C@]4(C)[C@@]3(F)[C@@H](O)C[C@]2(C)[C@@]1(O)C(=O)COP(=O)(O)O [AVM0703, dexamethasone sodium phosphate]
CD45 (as % of CD56+ γδTCR+ iTCR+ cells) [1]: 96% | CD56+ γδTCR+ iTCR+ % of total WBCs [1]: 0.72% | CD56+ γδTCR+ iTCR+ cells/uL [1]: 112 cells/uL | CD3 (as % of CD56+ γδTCR+ iTCR+ cells) [2]: 24% | CD8hi (as % of CD56+ γδTCR+ iTCR+ cells) [2]: 2% | CD8med (as % of CD56+ γδTCR+ iTCR+ cells) [2]: 16% | CD14+ (as % of CD56+ γδTCR+ iTCR+ cells) [2]: 50% | CD16 (as % of CD56+ γδTCR+ iTCR+ cells) [2]: 80% | CD19+ (as % of CD56+ γδTCR+ iTCR+ cells) [2]: 24% | CD45 (as % of CD56+ γδTCR+ iTCR+ cells) [2]: 98% | CD56+ γδTCR+ iTCR+ % of total WBCs [2]: 0.22% | CD56+ γδTCR+ iTCR+ cells/uL [2]: 36 cells/uL and 36.0 cells/uL | CD56+ γδTCR+ iTCR+ % of total WBCs [3]: 0.06% | CD56+ γδTCR+ iTCR+ cells/uL [3]: 3 cells/uL | CD3 (as % of CD56+ γδTCR+ iTCR+ cells) [4]: 23% | CD8hi (as % of CD56+ γδTCR+ iTCR+ cells) [4]: 2.2% | CD8med (as % of CD56+ γδTCR+ iTCR+ cells) [4]: 4.4% | CD14+ (as % of CD56+ γδTCR+ iTCR+ cells) [4]: 81% | CD16 (as % of CD56+ γδTCR+ iTCR+ cells) [4]: 89% | CD19+ (as % of CD56+ γδTCR+ iTCR+ cells) [4]: 26% | CD45 (as % of CD56+ γδTCR+ iTCR+ cells) [4]: 13% | CD56+ γδTCR+ iTCR+ % of total WBCs [4]: 0.84% | CD56+ γδTCR+ iTCR+ cells/uL [4]: 26 cells/uL | CD3 (as % of CD56+ γδTCR+ iTCR+ cells) [5]: 49% | CD8hi (as % of CD56+ γδTCR+ iTCR+ cells) [5]: 1% | CD8med (as % of CD56+ γδTCR+ iTCR+ cells) [5]: 55% | CD14+ (as % of CD56+ γδTCR+ iTCR+ cells) [5]: 35% | CD16 (as % of CD56+ γδTCR+ iTCR+ cells) [5]: 58% | CD19+ (as % of CD56+ γδTCR+ iTCR+ cells) [5]: 17% | CD45 (as % of CD56+ γδTCR+ iTCR+ cells) [5]: 11% | CD56+ γδTCR+ iTCR+ % of total WBCs [5]: 0.19% | CD56+ γδTCR+ iTCR+ cells/uL [5]: 10.2 cells/uL | CD3 (as % of CD56+ γδTCR+ iTCR+ cells) [6]: 22% | CD8hi (as % of CD56+ γδTCR+ iTCR+ cells) [6]: 4% | CD8med (as % of CD56+ γδTCR+ iTCR+ cells) [6]: 20% | CD14+ (as % of CD56+ γδTCR+ iTCR+ cells) [6]: 76% | CD16 (as % of CD56+ γδTCR+ iTCR+ cells) [6]: 82% | CD19+ (as % of CD56+ γδTCR+ iTCR+ cells) [6]: 28% | CD45 (as % of CD56+ γδTCR+ iTCR+ cells) [6]: 84% | CD56+ γδTCR+ iTCR+ % of total WBCs [6]: 0.43% | CD56+ γδTCR+ iTCR+ cells/uL [6]: 20 cells/uL | AVM_NKT CD56+γδTCR+iTCR+ cells in the blood (patient 108-001, after the third 9 mg/kg infusion): not evident in the blood | CD56+gdTCR+ inv TCR+ cells induced (patient 108-002, 18 mg/kg): YES | CD3 (as % of CD56+ γδTCR+ iTCR+ cells) [7]: 83.2% | CD8hi (as % of CD56+ γδTCR+ iTCR+ cells) [7]: 88% | CD8med (as % of CD56+ γδTCR+ iTCR+ cells) [7]: 12.3% | CD14+ (as % of CD56+ γδTCR+ iTCR+ cells) [7]: 79% | CD16 (as % of CD56+ γδTCR+ iTCR+ cells) [7]: 87% | CD19+ (as % of CD56+ γδTCR+ iTCR+ cells) [7]: 98% | CD45 (as % of CD56+ γδTCR+ iTCR+ cells) [7]: 100% | CD56+ γδTCR+ iTCR+ cells/uL [7]: 49.5 cells/uL | CD56+ γδTCR+ iTCR+ % of total WBCs [8]: 0.04% | CD56+ γδTCR+ iTCR+ cells/uL [8]: 2.3 cells/uL | CD3 (as % of CD56+ γδTCR+ iTCR+ cells) [9]: 72% | CD8hi (as % of CD56+ γδTCR+ iTCR+ cells) [9]: 73% | CD8med (as % of CD56+ γδTCR+ iTCR+ cells) [9]: 16.5% | CD14+ (as % of CD56+ γδTCR+ iTCR+ cells) [9]: 80% | CD16 (as % of CD56+ γδTCR+ iTCR+ cells) [9]: 41.2% | CD19+ (as % of CD56+ γδTCR+ iTCR+ cells) [9]: 80% | CD45 (as % of CD56+ γδTCR+ iTCR+ cells) [9]: 84% | CD56+ γδTCR+ iTCR+ % of total WBCs [9]: 0.25% | CD56+ γδTCR+ iTCR+ cells/uL [9]: 9.7 cells/uL | CD56+gdTCR+ inv TCR+ cells induced (patient 108-003, 12 mg/kg): YES | CD3 (as % of CD56+ γδTCR+ iTCR+ cells) [10]: 14% | CD8hi (as % of CD56+ γδTCR+ iTCR+ cells) [10]: 1.7% | CD8med (as % of CD56+ γδTCR+ iTCR+ cells) [10]: 9% | CD14+ (as % of CD56+ γδTCR+ iTCR+ cells) [10]: 43% | CD16 (as % of CD56+ γδTCR+ iTCR+ cells) [10]: 85% | CD19+ (as % of CD56+ γδTCR+ iTCR+ cells) [10]: 40% | CD45 (as % of CD56+ γδTCR+ iTCR+ cells) [10]: 95% | CD56+ γδTCR+ iTCR+ % of total WBCs [10]: 0.4% | CD56+ γδTCR+ iTCR+ cells/uL [10]: 31.8 cells/uL | CD3 (as % of CD56+ γδTCR+ iTCR+ cells) [11]: 80% | CD8hi (as % of CD56+ γδTCR+ iTCR+ cells) [11]: 12.6% | CD8med (as % of CD56+ γδTCR+ iTCR+ cells) [11]: 45% | CD14+ (as % of CD56+ γδTCR+ iTCR+ cells) [11]: 68% | CD16 (as % of CD56+ γδTCR+ iTCR+ cells) [11]: 75% | CD19+ (as % of CD56+ γδTCR+ iTCR+ cells) [11]: 11.5% | CD45 (as % of CD56+ γδTCR+ iTCR+ cells) [11]: 67% | CD56+ γδTCR+ iTCR+ % of total WBCs [11]: 0.6% | CD56+ γδTCR+ iTCR+ cells/uL [11]: 58.4 cells/uL | CD3 (as % of CD56+ γδTCR+ iTCR+ cells) [12]: 90% | CD8hi (as % of CD56+ γδTCR+ iTCR+ cells) [12]: 8% | CD8med (as % of CD56+ γδTCR+ iTCR+ cells) [12]: 84% | CD14+ (as % of CD56+ γδTCR+ iTCR+ cells) [12]: 87% | CD16 (as % of CD56+ γδTCR+ iTCR+ cells) [12]: 89% | CD19+ (as % of CD56+ γδTCR+ iTCR+ cells) [12]: 12.4% | CD45 (as % of CD56+ γδTCR+ iTCR+ cells) [12]: 94% | CD56+ γδTCR+ iTCR+ % of total WBCs [12]: 0.83% | CD56+ γδTCR+ iTCR+ cells/uL [12]: 94 cells/uL | CD56+γδTCR+invTCR+ cells in blood (patient 108-004, 12 mg/kg, one hour, 3 days or 14 days after infusion (pre-infusion 0.09%, 4.6 cells/uL)): no increase
